In patent publication US6911306B1, “TMS1 compositions and methods of use” (Emory University, priority 1999, dated 2005):
Where a SMILES comes first, the peptide text is derived from it. The star is where a group is joined. Cbz = O=C(OCc1ccccc1)*; CH2F = FC*

Key:
[1] = system: TMS1 CpG island; experiment: Methylation-specific PCR of the TMS1 CpG island after demethylating agent treatment; type: cell-based, human; details: 0.5 μM for 3 days; ZR75-1, Hs578t and MDA MB231 cells
Method: Bisulfite modification and methylation-specific PCR were performed as previously described. (Herman, J. G., et al., Proc. Natl. Acad. Sci. U.S.A. 93:9821-9826, 1996) Briefly, 2 μg genomic DNA was denatured by incubation at 37° C. in 0.2N NaOH for 10 min. then treated with 3M sodium metabisulfite and 0.5 M hydroquinone at 50° C. for 16 h. DNA was desalted using Wizard DNA Clean-Ups (Promega). Modification was completed by the addition of NaOH to a final concentration of 0.3M and DNA was recovered by ethanol precipitation. Approximately 50 ng bisulfite-modified DNA was amplified by PCR with the following reaction conditions: 67 mM Tris-HCl, pH 8.8, 16.6 mM NH4SO4, 6.7 μM EDTA, 10 mM β-mercaptoethanol, 6.7 mM MgCl2, 1 μM each primer in a 25 μl reaction. Hot start PCR was performed using an initial 5 minute incubation at 95° C. followed by the addition of 0.5 U Taq polymerase (Life Technologies) and 35 cycles of PCR (95° C., 30 s; 58° C., 30 s; 72° C., 30 s). […]
(§1) If loss of TMS1 expression is directly related to methylation of the CpG island, then expression of TMS1 should be restored following treatment with a demethylating agent. […] Methylation of the TMS1 CpG island was analyzed by methylation specific PCR and expression of TMS1 was analyzed by RT-PCR with β-actin controls. […]

[2] = system: TMS1 transcript; experiment: RT-PCR analysis of TMS1 expression after demethylating agent treatment; type: cell-based, human; details: 0.5 μM for 3 days; ZR75-1, Hs578t and MDA MB231 cells
Method: Six μg total RNA was pretreated with DNAse I (Life Technologies) and reverse transcribed using random hexamer primers and MMLV-reverse transcriptase according to the manufacturers instructions (Life Technologies). One/30th of the reverse transcriptase reaction equivalent to 200 ng starting RNA was used directly in a PCR reaction. The PCR reaction conditions were: 67 mM Tris-HCl, pH 8.8, 16.6 mM NH4SO4, 6.7 μM EDTA, 10 mM β-mercaptoethanol, 4.7 mM MgCl2, 10% DMSO, 400 nM each primer in a 25 μl reaction. Hot start PCR was performed using an initial 5 minute incubation at 95° C. followed by the addition of 0.5 U Taq polymerase and 35 cycles of PCR (95° C., 30 s; 50-55° C., 60 s; 72° C., 60 s). Primers used for analysis of TMS1 were TGGGCCTGCAGGAGATG-3′ (SEQ ID NO:13) and 5′-ATTTGGTGGGATTGCCAG-3′ (SEQ ID NO:9) with an annealing temperature of 50° C. Primers used for the analysis for β-actin were 5′-[…]-3′ (SEQ ID NO:14) and 5′-[…]-3′ (SEQ ID NO:15) with an annealing temperature of 55° C. […]
as §1

[3] = system: 293 cells; experiment: Fluorescence microscopy of TMS1 subcellular localization; type: cell-based, human; details: cells expressing TMS1 in the presence of Z-VAD
Method: Cells were fixed in 4% formaldehyde, permeabilized in 0.2% triton X-100 in PBS and blocked with 3% BSA/0.02% triton X-100 in PBS. Coverslips were incubated with myc antibody (9E10) (Santa Cruz Biotechnology, Santa Cruz, Calif.) at a 1:500 dilution, washed 4 times in PBS/0.02% triton X-100 and incubated with a secondary FITC antibody at a 1:2000 dilution. After 3 more washes, cells were stained with Hoechst 33258 dye to visualize nuclei, washed twice in PBS and mounted on slides. Cells were viewed at 400× or 1000× using the Olympus BX60 microscope. Digital images were captured using IP Lab Spectrum v.3.1 software (Scanalytics, Inc., Fairfax, Va.).

[4] = system: MTMS22 cells; experiment: MTMS22 cell proliferation with ecdysone-inducible TMS1 expression; type: cell-based, human
Method: The Ecdysone-Inducible Mammalian Expression System (Invitrogen, Carlsbad, Calif.) was used to create clones of 293 cells that inducibly express mycTMS1. The mycTMS1 cDNA was cloned into the HindIII/XhoI sites of the pIND expression vector (pIND-mycTMS1). EcR-293 cells (Invitrogen, Carlsbad, Calif.) containing the pVgRXR vector were transfected with pIND-mycTMS1 or pIND using Lipofectamine Reagent (Life Technologies, Grand Island, N.Y.). Cells were maintained in selection medium containing 600 μg/ml G418 for 3 weeks to isolate stably transfected colonies. Clonal populations transfected with pIND-mycTMS1 were then tested for inducible expression by western blot analysis after addition of 5 μM pon A.
Human embryonic kidney 293 cells and EcR-293 derivatives (MTMS22 and PIND1) were cultured in DMEM (Life Technologies, Inc. Grand Island, N.Y.) supplemented with 10% fetal bovine serum. MTMS22 and PIND1 cells were maintained in the presence of 400 μg/ml zeocin and 600 μg/ml G418. Transfections of 293 cells were carried out in 24-well dishes with 1×10^5 cells and 0.5 μg total DNA per well using the calcium phosphate method. As a transfection marker, a βgal expression vector (β-gal CMV) was included at a 1:4 ratio with the indicated cDNA constructs. […]

[5] = system: pIND1 control cells; experiment: Growth of pIND1 control cells; type: cell-based, human; details: empty-vector control cells
Method: (§2) Human embryonic kidney 293 cells and EcR-293 derivatives (MTMS22 and PIND1) were cultured in DMEM (Life Technologies, Inc. Grand Island, N.Y.) supplemented with 10% fetal bovine serum. MTMS22 and PIND1 cells were maintained in the presence of 400 μg/ml zeocin and 600 μg/ml G418. Transfections of 293 cells were carried out in 24-well dishes with 1×10^5 cells and 0.5 μg total DNA per well using the calcium phosphate method. As a transfection marker, a βgal expression vector (β-gal CMV) was included at a 1:4 ratio with the indicated cDNA constructs. In co-transfections with DN-caspase-8 or DN-caspase-9, 0.2 μg of pcDNA-TMS1 was transfected with […] of pcDNA3.1 or DN-caspase-8 or -9 along with 0.1 μg of β-gal CMV as a transfection control.
An ecdysone-regulated expression system was used to create a 293 cell line that inducibly expresses TMS1. […] In addition, a clonal population of cells stably transfected with the empty expression vector was isolated as a control (PIND1). Upon addition of pon A to the MTMS22 cells, mycTMS1 was detectable by western blotting as early as 6 hours after treatment and continued to accumulate in the cells over 48 hours (FIG. 6A). […] By 96 hours, pon A-treated cells were declining in number, confirming cell death. As a biochemical marker for apoptosis, MTMS22 cells were examined for DNA fragmentation in the presence or absence of TMS1 expression. […]

[6] = system: MTMS22 cells; experiment: DNA fragmentation in MTMS22 cells; type: cell-based, human
Method: Where indicated, MTMS22 cells were treated with 5 μM pon A (Invitrogen) or 40 μM Z-VAD-fmk (Enzyme System Products, Livermore, Calif.). DNA was collected from 2×10^6 cells as previously described. (Burow, M. E., et al. Cancer Research. 58: 4940-4946, 1998) 5 μg of DNA from each sample was visualized by separation on a 2% agarose gel containing ethidium bromide.

[7] = system: 293 human embryonic kidney cells; experiment: Morphological apoptosis assay in transiently transfected 293 cells; type: cell-based; details: 48 h; for apoptosis on ectopic expression: transient transfection of 293 cells
Method: 293 human embryonic kidney cells were plated on glass coverslips in 24 well dishes at 1×10^5 cells per well, and were transfected with 0.4 μg of pcDNA3.1 or the TMS1 expression constructs plus 0.1 μg β-galactosidase expression vector (pCMVβgal, Clonetech) using the calcium phosphate precipitation method. Where indicated, 40 μM zVADfmk (Enzyme System Product, Livermore, Calif.) was included during the recovery period. Forty-eight hours after transfection, coverslips were fixed in 4% paraformaldehyde and stained for β-galactosidase activity, using X-gal, and for nuclear morphology, using Hoecsht […] dye. Cells were visualized by phase contrast microscopy. At least 200 β-galactosidase positive cells from randomly selected fields were counted from each transfection. Apoptotic cells were distinguished based on morphologic features typical of adherent cells undergoing apoptosis, including becoming condensed, rounded and detached from the growth surface as described. (McCarthy, J. V. et al., J.Biol.Chem. 273:16968-16975, 1998). Each transfection experiment was repeated three times.
as §2
48 h after transfection, 293 cells were fixed on coverslips and stained for β-gal activity. Nuclei were stained using Hoechst 33258 dye (Sigma, St. Louis, Mo.). […]

[8] = system: NF-κB; experiment: CAT assay for NF-κB activation; type: cell-based, human; details: 293 cells, NF-κB CAT reporter, increasing amounts of TMS1
Method: 293 cells plated at 60% confluence in 6 well dishes were transfected with 0.2 μg of the NF-κB CAT reporter construct (pJECAT2.6) and increasing amounts of pcDNA-mycTMS1 by the calcium phosphate method. 0.2 μg of β-gal CMV was included as a transfection control, and the total amount of DNA transfected was kept constant at 2 μg with pcDNA3.1. Cell lysates were collected 36 h after transfection in β-gal lysis buffer (Promega, Madison, Wis.) and assayed for β-gal activity using the β-Galactosidase Enzyme Assay System (Promega, Madison, Wis.) per manufacturer's instructions. CAT assays were performed basically as described. (Ausubel, F. M., et al. Curr. Prot. Mol. Biol., Vol. 2, pp. 9.7.5-9.7.6: John Wiley & Sons, Inc., 1997) In brief, cell lysates were incubated with [^14C]chloramphenicol and n-butyryl CoA. [^14C]-labeled acetylated chloramphenicol was then separated from the nonacetylated form by organic phase extraction, and radioactive counts were determined using a scintillation counter.

[9] = system: Hs578t cells; experiment: Colony formation assay; type: cell-based, human; details: stable expression, 14 days G418 selection, relative to vector control
Method: Breast cancer cells, including Hs57 8t, (3×10^5) were seeded into six well dishes and transfected with 1 μg pcDNA3.1 or the TMS1 expression constructs using 5 μl Lipofectamine reagent (Life Technologies). Twenty-four hours after transfection, cells were diluted 1:100-1:500 and seeded into 100 mm dishes in medium containing 400 μg/ml G418. After 14 days of selection, stable G418-resistant colonies were fixed and stained with 50% methanol, 0.25% crystal violet, and counted. The total number of colonies recovered per transfection cells was extrapolated from counting at least 300 G418^r colonies per experiment. The number of colonies recovered from cells transfected with pcDNA3.1 in each experiment was considered to be 100%. Three independent transfection experiments were performed.
Given the proapoptotic function of TMS1, the consequences of TMS1 silencing were determined by re-introducing TMS1 into breast cancer cells lacking endogenous TMS1 expression. Colony forming ability of TMS1 negative breast cancer cells stably transfected with TMS1 expression constructs was analyzed in the following manner. Hs578t cells were transfected with the pcDNA3.1 vector or the indicated TMS1 expression construct. Twenty-four hours after transfection, cells were plated at limiting dilution in G418 selection medium. […]

[10] = MTMS22 cells with pon A, 40 μM Z-VAD

## Nc1ncn([C@H]2C[C@H](O)[C@@H](CO)O2)c(=O)n1 [5-aza-2′-deoxycytidine]
[1]
  methylation of the TMS1 CpG island: partial demethylation
[2]
  expression of TMS1 transcript: re-expression-of TMS1 transcript

## COC(=O)C[C@H](NC(=O)[C@H](C)NC(=O)[C@@H](NC(=O)OCc1ccccc1)C(C)C)C(=O)CF [Z-VAD, Z-VAD-fmk] (Cbz-Val-Ala-Asp(OMe)-CH2F)
[3]
  effect on formation of TMS1-containing spherical aggregates: no effect
[4]; [10]
  effect on TMS1-induced cell death: blocked
[5]
  effect on growth of pIND1 control cells: Neither pon A or Z-VAD had any effect
[6]; [10]
  effect on TMS1-induced DNA fragmentation: blocked

## CC(C)CC[C@@H](O)[C@](C)(O)[C@H]1CC[C@@]2(O)C3=CC(=O)[C@@H]4C[C@@H](O)[C@@H](O)C[C@]4(C)[C@H]3CC[C@]12C [pon A]
[5]
  effect on growth of pIND1 control cells: Neither pon A or Z-VAD had any effect

## TMS1: human TMS1 polypeptide (SEQ ID NO:3) expressed from the TMS1 cDNA in pcDNA3.1
[7]; 293 cells, ectopic expression
  increase in cell death: 6 fold
[7]
  apoptosis on ectopic expression: induced apoptosis
[4]; MTMS22 cells, pon A, by 48 hours after induction
  cell growth on induced TMS1 expression: cell growth was significantly inhibited
[8]
  NF-κB-dependent transcriptional activation: no effect
[6]; MTMS22 cells, pon A, as early as 16 hours, most evident at 48 hours
  DNA laddering on induced TMS1 expression: DNA laddering was observed
[9]
  inhibition of colony formation: about 70%

## mycTMS1: TMS1 with a myc-epitope tag fused to amino acid 2
[7]
  apoptosis on ectopic expression: induced apoptosis
